In patent publication US20240287089A1, “Preparation and Uses of 7-Azaindenoisoquinolines” (Purdue Research Foundation, priority 0001, published 2024):
Like-named read-outs stand apart in the source and are kept apart here.

Assays:
SF-539 (CNS) = experiment: NCI-60 cytotoxicity assay; assay type: cell-based; conditions: Homo sapiens; CNS SF-539, 48 h; read-out: Cytotoxicity GI50
Method in brief: (§1)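 Five concentrations from 100 μM to 10 nM, 48 h exposure. Growth measured by sulforhodamine B staining and percentage growth plotted against log concentration to give GI50. MGM is the approximate mean GI50 across the full NCI-60 panel.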

HCT-116 (Colon) = experiment: NCI-60 cytotoxicity assay; assay type: cell-based, human; conditions: Colon HCT-116, 48 h, read-out: Cytotoxicity GI50
Method in brief: as §1

SN12C (Renal) = experiment: NCI-60 cytotoxicity assay; assay type: cell-based, human; conditions: Renal SN12C, 48 h, read-out: Cytotoxicity GI50
Method in brief: as §1

HOP-62 (Lung) = experiment: NCI-60 cytotoxicity assay; assay type: cell-based, human; conditions: Lung HOP-62, 48 h, read-out: Cytotoxicity GI50
Method in brief: as §1

MCF7 (Breast) = experiment: NCI-60 cytotoxicity assay; assay type: cell-based, human; conditions: Breast MCF7, 48 h, read-out: Cytotoxicity GI50
Method in brief: as §1

DU-145 (Prostate) = experiment: NCI-60 cytotoxicity assay; assay type: cell-based, human; conditions: Prostate DU-145, 48 h, read-out: Cytotoxicity GI50
Method in brief: as §1

UACC-62 (Melanoma) = experiment: NCI-60 cytotoxicity assay; assay type: cell-based, human; conditions: Melanoma UACC-62, 48 h, read-out: Cytotoxicity GI50
Method in brief: as §1

OVCAR-3 (Ovarian) = experiment: NCI-60 cytotoxicity assay; assay type: cell-based, human; conditions: Ovarian OVCAR-3, 48 h, read-out: Cytotoxicity GI50
Method in brief: as §1

Caco-2 cells = experiment: Caco-2 permeability; assay type: in vitro ADME; conditions: for Efflux Ratio / Recovery (%)AP-BL / Recovery (%)BL-AP: Caco-2; for Papp (A→B) / Papp (B→A): Caco-2, 5 μM, 2 h
Experimental: Caco-2 Permeability Studies. The Caco-2 plate was removed from the incubator and washed twice with pre-warmed HBSS (10 mM HEPES, pH 7.4), and then incubated at 37° C. for 30 min. The stock solutions of controls compounds were diluted in DMSO to get 1 mM solutions and then diluted with HBSS (10 mM HEPES, pH 7.4) to get 5 μM working solutions. The stock solutions of the test compounds were diluted in DMSO to get 1 mM solutions and then diluted with HBSS (10 mM HEPES, pH 7.4) to get 5 μM working solutions. The final concentration of DMSO in the incubation system was 0.5%. To determine the rate of drug transport in the apical to basolateral direction, 75 μL of 5 μM working solutions of test compounds was added to the Transwell insert (apical compartment) and the wells in the receiver plate (basolateral compartment) were filled with 235 μL of HBSS (10 mM HEPES, pH 7.4). To determine the rate of drug transport in the basolateral to apical direction, 235 μL of 5 μM working solutions of test compounds were to the receiver plate wells (basolateral compartment) and then the Transwell inserts (apical compartment) were filled with 75 μL of HBSS (10 mM HEPES, pH 7.4). Time 0 samples were prepared by transferring 50 μL of 5 μM working solution to wells of the 96-deepwell plate, followed by the addition of 200 μL cold methanol containing appropriate internal standards (IS). The plates were incubated at 37° C. for 2 h. […] An aliquot of 100 μL of the supernatant was mixed with an appropriate volume of ultra-pure water before LC-MS/MS analysis. To determine the Lucifer Yellow leakage after 2 h transport period, stock solution of Lucifer yellow was prepared in ultra-pure water and diluted with HBSS (10 mM HEPES, pH 7.4) to reach the final concentration of 100 μM and then 100 μL of the Lucifer yellow solution was added to each Transwell insert (apical compartment), followed by filling the wells in the receiver plate (basolateral compartment) with 300 μL of HBSS (10 mM HEPES, pH 7.4). The plates were incubated at 37° C. for 30 minutes. Samples (80 μL) were removed directly from the apical and basolateral wells (using the basolateral access holes) and transferred to wells of new 96 wells plates.

[1] = human, 6 h, 1 μM; for % Bound: plasma
Experimental: (§2) Analysis of Plasma Protein Binding and Stability in Human and Mouse Blood Plasma by Equilibrium Dialysis. Frozen plasma (stored at −80° C.) was thawed immediately in a 37° C. water bath. The working solutions of test compound and control compound were prepared in DMSO at 200 μM concentration, and the working solutions were spiked into plasma. The final concentration of compound was 1 μM. The final concentration of DMSO was 0.5%. Ketoconazole was used as positive control in the assay. The dialysis membranes were soaked in ultrapure water for 60 min to separate strips, then in 20% ethanol for 20 min, and then finally in dialysis buffer for 20 min. For equilibrium dialysis, each cell contained plasma sample (150 μL) and was dialyzed against an equal volume of dialysis buffer (PBS). The assay was performed in duplicate. The dialysis plate was sealed and incubated at 37° C. with 5% CO2 at 100 rpm for 6 h. At the end of incubation, samples (50 μL) from both buffer and plasma chambers were transferred to wells of a 96-well plate. Plasma (50 μL) was added to each buffer sample and an equal volume of PBS was added to the collected plasma sample. Cold acetonitrile (400 μL) containing internal standards (IS, 100 nM alprazolam, 200 nM labetalol, 200 nM imipramine and 2 μM ketoprofen) was added to precipitate protein and release compounds. Samples were vortexed for 2 min and centrifuged for 30 min at 3,220 g. An aliquot (100 μL) of the supernatant was diluted with ultra-pure H2O (100 μL), and the mixture was used for LC-MS/MS analysis. For stability determination in plasma, a spiked plasma sample (50 μL) was transferred to a new plate and incubated at 37° C., 5% CO2 for 0 and 6 h. At designated time points, PBS (50 μL) was added and mixed thoroughly, followed by the addition of room temperature quench solution [400 μL of acetonitrile containing internal standards (IS, 100 nM alprazolam, 200 nM labetalol, 200 nM imipramine and 2 μM ketoprofen)] to precipitate protein and release compounds. Samples were vortexed for 2 min and centrifuged for 30 min at 3,220 g. An aliquot (400 μL) of the supernatant was diluted by ultra-pure H2O, and the mixture was used for LC-MS/MS analysis. The concentrations of test compounds in the buffer and plasma chambers were determined from peak area ratios.

[2] = Maximum tolerated dose determination in NOD SCID mice; assay type: in vivo; conditions: QD x 5; for Body Weight %: 7 days after first dose; for Maximum tolerated dose (MTD): NOD SCID mice, IV, body weight % ≥80%
Experimental: Maximum Tolerated Dose Determinations. […]. […] Experiments involving 100 mg/kg doses of all three drugs were terminated after one day because of toxicity, while the study involving 50 mg/kg dose of G105 was also halted after one day (FIG. 12). Similarly, the investigation with a 40 mg/kg dose of G105 was discontinued after two days (FIG. 13).

NCI-60 cancer cell lines = experiment: NCI-60 cytotoxicity assay, MGM; assay type: cell-based; conditions: Homo sapiens; read-out: MGM (average GI50 across NCI-60 panel)
Method in brief: as §1

[3] = mouse, 6 h, 1 μM; for % Bound: plasma
Experimental: as §2

[4] = human, 1 μM
Experimental: as §2

SMILES | GI50 (SF-539 (CNS)) [nM] | GI50 (HCT-116 (Colon); Homo sapiens) [nM] | GI50 (SN12C (Renal); Homo sapiens) [nM] | GI50 (HOP-62 (Lung); Homo sapiens) [nM] | GI50 (MCF7 (Breast); Homo sapiens) [nM] | GI50 (DU-145 (Prostate); Homo sapiens) [nM] | GI50 (UACC-62 (Melanoma); Homo sapiens) [nM] | GI50 (OVCAR-3 (Ovarian); Homo sapiens) [nM] | Recovery (%)AP-BL (Caco-2 cells) [%] | Recovery (%)BL-AP (Caco-2 cells) [%] | Papp (A→B) (Caco-2 cells) | Papp (B→A) (Caco-2 cells) | % Recovery [1] [%] | % Bound [1] [%] | Body Weight % ([2]; 5 mg/Kg IV) [%] | Body Weight % ([2]; 10 mg/Kg IV) [%] | Body Weight % ([2]; 15 mg/Kg IV) [%] | Body Weight % ([2]; 20 mg/Kg IV) [%] | Body Weight % ([2]; 30 mg/Kg IV) [%] | Maximum tolerated dose (MTD) [2] [mg/kg] | further results
CCNCCCn1c2c(c3cc(OC)c(OC)cc3c1=O)C(=O)c1cc3c(nc1-2)OCO3 [G104, 6-(3-(Ethylamino)propyl)-2,3-dimethoxy-5H-[1,3]dioxolo[4″,5″:5′,6′]pyrido [3′,2′:4,5]cyclopenta[1,2-c]isoquinoline-5,12(6H)-dione] | 680 | 1180 | 4610 | 200 | 75 | 550 | 1810 | 11300 | 54.60 | 81.64 | 1.69 10^−6, cm/s | 16.04 10^−6, cm/s | 83.58 | 81.21 | 92.4 | 95.2 | 87 | 83.3 | 88.8 | 30 | Efflux Ratio (Caco-2 cells): 9.51; Body Weight % ([2]; 40 mg/Kg IV): 78.8%; GI50 (NCI-60 cancer cell lines): 1450 nM; % Recovery [3]: 80.60%; % Bound [3]: 83.44%; % Stability at 6 hrs [4]: 86.15%
COc1cc2c3c(n(CCCNC(C)C)c(=O)c2cc1OC)-c1nc2c(cc1C3=O)OCO2 [G103, 6-(3-(Isopropylamino)propyl)-2,3-dimethoxy-5H-[1,3]dioxolo [4″,5″:5′,6′]pyrido[3′,2′:4,5]cyclopenta[1,2-c]isoquinoline-5,12(6H)-dione] | 1520 | 1040 | 10600 | 470 | 100 | 1050 | 9840 | 14300 | 36.17 | 75.54 | 1.55 10^−6, cm/s | 8.95 10^−6, cm/s | 88.05 | 82.60 | 92.4 | 93 | 93.9 | 86 | 85.1 | 50 | Body Weight % ([2]; 40 mg/Kg IV): 85.3%; Body Weight % ([2]; 50 mg/Kg IV): 86.6%; Body Weight % ([2]; 60 mg/Kg IV): 74%; GI50 (NCI-60 cancer cell lines): 2190 nM; % Recovery [3]: 88.02%; % Bound [3]: 84.11%; % Stability at 6 hrs [4]: 94.96%
COc1cc2c3c(n(CCCNCCO)c(=O)c2cc1OC)-c1nc2c(cc1C3=O)OCO2 [G105, 6-(3-((2-Hydroxyethyl)amino)propyl)-2,3-dimethoxy-5H-[1,3]dioxolo[4″,5″:5′,6′]pyrido[3′,2′:4,5]cyclopenta[1,2-c]isoquinoline-5,12(6H)-dione] | 1000 | 1250 | 3940 | 420 | 260 | 2710 | 2380 | 5650 | 75.07 | 95.77 | 2.39 10^−6, cm/s | 18.16 10^−6, cm/s | 99.38 | 80.88 | 97.2 | 95.5 | 79.2 | 82 | 74.7 | 20 | GI50 (HCT-116 (Colon)): 1250 nM; GI50 (SN12C (Renal)): 3940 nM; GI50 (HOP-62 (Lung)): 420 nM; GI50 (MCF7 (Breast)): 260 nM; GI50 (DU-145 (Prostate)): 2710 nM; GI50 (UACC-62 (Melanoma)): 2380 nM; GI50 (OVCAR-3 (Ovarian)): 5650 nM; Efflux Ratio (Caco-2 cells): 7.60; GI50 (NCI-60 cancer cell lines): 2950 nM; % Recovery [3]: 90.43%; % Bound [3]: 79.41%; % Stability at 6 hrs [4]: 95.42%
